From patent US20210087172A1, “FACTOR XIIa INHIBITORS” (UNIVESITY OF LEEDS, priority 2018, published 2021)
Blank lines part the entries; values can stand above or below the compound they belong to.

Columns and labels:
Assay type in all cases: biochemical
[1] = biological target: T1, FXIIa alpha (Human) (Homo sapiens, UniProt P00748); test: Determination of Factor XIIa inhibition, chromogenic substrate S-2302; settings: 10 nM FXIIa, 450 μM S-2302, 37° C., pH 7.4; Ki converted from IC50
T1 construct: FXIIa alpha
T1 sequence (P00748 373-615 limits assumed): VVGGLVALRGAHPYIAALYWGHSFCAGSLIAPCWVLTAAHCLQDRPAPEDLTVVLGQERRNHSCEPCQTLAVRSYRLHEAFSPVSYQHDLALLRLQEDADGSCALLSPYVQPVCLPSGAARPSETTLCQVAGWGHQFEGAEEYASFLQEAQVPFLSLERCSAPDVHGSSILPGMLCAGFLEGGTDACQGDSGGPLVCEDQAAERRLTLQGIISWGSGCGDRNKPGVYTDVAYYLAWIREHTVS
T1 sequence (P00748 20-372 partner limits assumed): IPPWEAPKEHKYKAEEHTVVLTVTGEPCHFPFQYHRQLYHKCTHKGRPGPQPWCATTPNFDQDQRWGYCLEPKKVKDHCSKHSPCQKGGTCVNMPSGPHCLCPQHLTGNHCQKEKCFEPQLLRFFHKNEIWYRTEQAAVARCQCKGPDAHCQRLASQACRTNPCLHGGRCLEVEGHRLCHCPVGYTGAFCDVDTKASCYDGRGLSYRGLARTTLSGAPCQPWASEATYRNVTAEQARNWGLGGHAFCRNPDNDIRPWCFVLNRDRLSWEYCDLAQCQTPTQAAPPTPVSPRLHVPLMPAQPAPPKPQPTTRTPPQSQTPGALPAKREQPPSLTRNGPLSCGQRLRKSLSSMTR
Experimental: (§1) The activities of the compounds of the invention have been determined in vitro using the following assays protocols for the screening of activity of FXIa and other proteases. Each of these assays were performed in a purified system employing the use of chromogenic assays in microplate plate wells. Chromogenic peptide substrates mimicking natural protein substrates are attached via an amide bond to a chromogenic group. Paranitroaniline (pNA) is released from the peptide following catalyses by the proteolytic enzyme; the absorbance increases and can be monitored at 405 nm.
(§2) All compounds were dissolved in 100% (v/v) DMSO to a stock concentration of 10 mM, the highest concentration of compound used in each assay is 500 μM. The final concentrations of DMSO were 5% (v/v) in 50 mM Tris 137 mM NaCl pH 7.4. Where no test compound was added a final concentration of 5% DMSO was employed.
[…] activity was measured using a chromogenic substrate S-2302 (Chromogenix). Various concentrations of compound were incubated with 10 nM of FXIIa and incubated at 37° C. for 10 minutes in 50 mM Tris, 137 mM NaCl, pH 7.4, prior to the addition of a final concentration of 450 μM S-2302 chromogenic substrate. Kinetic readings at 405 nm were monitored every 12 secs for a total duration of 3 hours at 37° C. Gradients of initial rates were determined and employed to calculate IC50 values. Values of IC50 were converted to Ki values based on the formula:
(§3) Ki=IC50/(1+[Substrate]/Km)
The activity of the compounds of the invention has been categorised based on the Ki values, the categories being “*”, “**” and “***”. […] The category refers to compounds with a Ki value of 0.2 μM to 2 μM.

[2] = biological target: FXa (human) (Homo sapiens, UniProt P00742); test: Determination of selectivity: FXa chromogenic assay (S2765 substrate); settings: fold selectivity for FXIIa over FXa; FXa 5 nM, S2765 350 μM
Sequence of FXa (human) (P00742 235-488 limits assumed): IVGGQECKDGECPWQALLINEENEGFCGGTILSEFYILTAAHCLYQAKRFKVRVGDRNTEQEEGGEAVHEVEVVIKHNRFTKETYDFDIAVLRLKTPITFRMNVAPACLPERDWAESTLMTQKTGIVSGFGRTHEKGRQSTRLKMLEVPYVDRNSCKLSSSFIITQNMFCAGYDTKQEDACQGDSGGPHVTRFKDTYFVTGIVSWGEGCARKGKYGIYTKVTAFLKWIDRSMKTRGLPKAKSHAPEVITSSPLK
Sequence of FXa (human) (P00742 41-179 partner limits assumed): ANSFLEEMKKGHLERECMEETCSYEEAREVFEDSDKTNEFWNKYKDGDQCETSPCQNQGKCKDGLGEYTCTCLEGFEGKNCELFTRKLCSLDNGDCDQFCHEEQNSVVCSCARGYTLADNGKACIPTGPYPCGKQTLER
Experimental: as §1, §2
(§4) To determine selectivity of test compounds, these test compounds were assayed for inhibitory activity against other serine proteases including FXa and thrombin. Essentially compounds at increasing concentrations were incubated with each enzyme: FXa (5 nM) and thrombin (5 nM), for 10 mins at 37° C. followed the appropriate chromogenic substrate, S2765 (350 μM), and GPR (250 μM) respectively in 50 mM Tris, 137 mM NaCl, pH 7.4. Chromogenic substrates S2765 was from Chromogenix, and GPR from Bachem. Kinetic readings at 405 nm were monitored every 12 secs for a total duration of 3 hours at 37° C. Gradients of initial rates were determined and employed to calculate IC50 values. Values of IC50 were converted to Ki values based on the formula:
as §3
(§5) Where [Substrate] denotes the concentration of substrate used in the assay and Km is the determined value of each enzyme with its own substrate.
The fold selectivity for FXIIa over FXa for the compounds of the invention has been categorised based on the fold selectivity values, the categories being “o”, “oo” and “ooo”. The category “o” refers to fold selectivity values less than 10. The category “oo” refers to a fold selectivity value of 10 to 100. The category “ooo” refers to fold selectivity values greater than 100.

[3] = biological target: T2, Thrombin (human) (Homo sapiens, UniProt P00734); test: Determination of selectivity: thrombin chromogenic assay (GPR substrate); settings: fold selectivity for FXIIa over thrombin; thrombin 5 nM, GPR 250 μM
T2 construct: FXa (5 nM) and thrombin (5 nM)
Experimental: as §1, §2, §4, §3, §5
The fold selectivity for FXIIa over thrombin for the compounds of the invention has been categorised based on the fold selectivity values, the categories being “+”, “++” and “+++”. The category “+” refers to fold selectivity values less than 10. The category “++” refers to a fold selectivity value of 10 to 100. The category “+++” refers to fold selectivity values greater than 100.

SMILES: COc1ccc(OC(=O)N2CCN(C(=O)[C@H](N)CCc3ccccc3)[C@H](C(=O)NCc3ccc4c(c3)nnn4C)C2)cc1 [Compound M00932]
- Ki [1]: > 2 µM
- FXa (human)/FXIIa alpha (human) fold selectivity [2]: oo (a fold selectivity value of 10 to 100)
- Thrombin (human)/FXIIa alpha (human) fold selectivity [3]: ++ (a fold selectivity value of 10 to 100)

SMILES: CN(C)[C@H](CCc1ccccc1)C(=O)N1CCN(C(=O)OCc2ccccc2)C[C@H]1C(=O)NCc1ccnc(N)c1 [Compound M00833]
- Ki [1]: > 2 µM
- FXa (human)/FXIIa alpha (human) fold selectivity [2]: oo (a fold selectivity value of 10 to 100)
- Thrombin (human)/FXIIa alpha (human) fold selectivity [3]: ++ (a fold selectivity value of 10 to 100)

SMILES: NC(CCC(=O)N1CCCC1)C(=O)N1CCN(C(=O)OCc2ccccc2)CC1C(=O)NCc1ccnc(O)c1 (stereo not shown) [Compound M05263]
- Ki [1]: > 2 µM

SMILES: N[C@H](CCC(=O)N1CCCC1)C(=O)N1CCN(C(=O)OCc2ccccc2)C[C@H]1C(=O)NCc1ccc2[nH]cnc2c1 [Compound M05213]
- Ki [1]: > 2 µM
- FXa (human)/FXIIa alpha (human) fold selectivity [2]: oo (a fold selectivity value of 10 to 100)
- Thrombin (human)/FXIIa alpha (human) fold selectivity [3]: ++ (a fold selectivity value of 10 to 100)

SMILES: CS(=O)(=O)N1CCN(C(=O)[C@H](N)CCc2ccccc2)[C@H](C(=O)NCc2ccc(CN)cc2)C1 [Compound M00838, (2S)-1-[(2R)-2-amino-4-phenylbutanoyl]-N-{[4-(aminomethyl)phenyl]methyl}-4-methanesulfonylpiperazine-2-carboxamide]
- Ki [1]: > 2 µM
- FXa (human)/FXIIa alpha (human) fold selectivity [2]: o (fold selectivity values less than 10)
- Thrombin (human)/FXIIa alpha (human) fold selectivity [3]: + (fold selectivity values less than 10)

SMILES: Cn1nnc2cc(CNC(=O)[C@@H]3CN(C(=O)Oc4ccccc4)CCN3C(=O)[C@H](N)CCc3ccccc3)ccc21 [Compound M00871]
- Ki [1]: > 2 µM
- FXa (human)/FXIIa alpha (human) fold selectivity [2]: oo (a fold selectivity value of 10 to 100)
- Thrombin (human)/FXIIa alpha (human) fold selectivity [3]: ++ (a fold selectivity value of 10 to 100)

SMILES: Cc1cc2cc(CNC(=O)C3CN(C(=O)OCc4ccccc4)CCN3C(=O)C(N)CCC(=O)N3CCCC3)ccc2cn1 (stereo not shown) [Compound M05292]
- Ki [1]: > 2 µM

SMILES: NCc1ccc(CNC(=O)C2CC(O)CCN2C(=O)C(N)CCc2ccccc2)cc1 (stereo not shown) [Compound M05071]
- Ki [1]: > 2 µM

SMILES: NCc1ccc(CNC(=O)C2CN(S(=O)(=O)CCc3ccccc3)CCN2C(=O)C(N)CCc2ccccc2)cc1 (stereo not shown) [Compound M00842]
- Ki [1]: > 2 µM

SMILES: NCc1ccc(CNC(=O)C2CN(C(=O)CCc3ccccc3)CCN2C(=O)C(N)CCc2ccccc2)cc1 (stereo not shown) [Compound M00840]
- Ki [1]: > 2 µM

SMILES: NCc1ccc(CNC(=O)C2CNCCN2C(=O)C(N)CCc2ccccc2)cc1 (stereo not shown) [Compound M00862]
- Ki [1]: > 2 µM

SMILES: NC(CCC(=O)N1CCCC1)C(=O)N1CCN(C(=O)OCc2ccccc2)CC1C(=O)NCc1ccc2cnccc2c1 (stereo not shown) [Compound M05275]
- Ki [1]: > 2 µM

SMILES: NC(CCC(=O)N1CCCC1)C(=O)N1CCN(C(=O)OCc2ccccc2)CC1C(=O)NCc1ccc2cnc(O)cc2c1 (stereo not shown) [Compound M05277]
- Ki [1]: > 2 µM
- Thrombin (human)/FXIIa alpha (human) fold selectivity [3]: ++ (a fold selectivity value of 10 to 100)

SMILES: NCc1ccc(CNC(=O)C2CN(c3ccccc3)CCN2C(=O)C(N)CCc2ccccc2)cc1 (stereo not shown) [Compound M00836]
- Ki [1]: > 2 µM

Second part, led by results:

- Ki [1]: > 2 µM
SMILES: Cn1ccnc1COC(=O)N1CCN(C(=O)C(N)CCc2ccccc2)C(C(=O)NCc2ccc3c(c2)nnn3C)C1 (stereo not shown) [Compound M00883]

- Ki [1]: > 2 µM
SMILES: Cn1nnc2cc(CNC(=O)[C@@H]3CN(C(=O)OCc4ccccc4)CCN3C(=O)[C@H]3C[C@@H](c4ccccc4)CN3)ccc21 [Compound M05276]
- FXa (human)/FXIIa alpha (human) fold selectivity [2]: oo (a fold selectivity value of 10 to 100)
- Thrombin (human)/FXIIa alpha (human) fold selectivity [3]: ++ (a fold selectivity value of 10 to 100)

- Ki [1]: > 2 µM
SMILES: Cn1nnc2cc(CNC(=O)C3CN(C(=O)OCc4ccc(Cl)cc4)CCN3C(=O)C(N)CCc3ccccc3)ccc21 (stereo not shown) [Compound M00942]

- Ki [1]: > 2 µM
SMILES: Cn1nnc2cc(CNC(=O)C3CN(c4ncccn4)CCN3C(=O)C(N)CCc3ccccc3)ccc21 (stereo not shown) [Compound M00891]

- Ki [1]: > 2 µM
SMILES: C#CCOC(=O)N1CCN(C(=O)C(N)CCc2ccccc2)C(C(=O)NCc2ccc3c(c2)nnn3C)C1 (stereo not shown) [Compound M00880]

- Ki [1]: > 2 µM
SMILES: NCc1ccc(CNC(=O)C2CN(C(=O)Cc3ccccc3)CCN2C(=O)C(N)CCc2ccccc2)cc1 (stereo not shown) [Compound M00843]
- FXa (human)/FXIIa alpha (human) fold selectivity [2]: oo (a fold selectivity value of 10 to 100)
- Thrombin (human)/FXIIa alpha (human) fold selectivity [3]: +++ (fold selectivity values greater than 100)

- Ki [1]: > 2 µM
SMILES: Cc1cc(CNC(=O)[C@@H]2CN(C(=O)OCc3ccccc3)CCN2C(=O)[C@H](N)CCc2ccccc2)cc(N)n1 [Compound M00858]
- FXa (human)/FXIIa alpha (human) fold selectivity [2]: oo (a fold selectivity value of 10 to 100)
- Thrombin (human)/FXIIa alpha (human) fold selectivity [3]: ++ (a fold selectivity value of 10 to 100)

- Ki [1]: > 2 µM
SMILES: Cn1nnc2cc(CNC(=O)[C@@H]3CN(c4ccc5ncccc5c4)CCN3C(=O)[C@H](N)CCc3ccccc3)ccc21 [Compound M00940, (2S)-1-[(2R)-2-amino-4-phenylbutanoyl]-N-[(1-methyl-1H-1,2,3-benzotriazol-5-yl)methyl]-4-(quinolin-6-yl)piperazine-2-carboxamide]

- Ki [1]: > 2 µM
SMILES: Cn1nnc2cc(CNC(=O)C3CN(C(=O)OCc4ccccc4)CCN3C(=O)C(N)C3Cc4ccccc4C3)ccc21 (stereo not shown) [Compound M05273]

- Ki [1]: > 2 µM
SMILES: NCc1ccc(CNC(=O)C2CN(C(=O)c3ccccc3)CCN2C(=O)C(N)CCc2ccccc2)cc1 (stereo not shown) [Compound M00844]

- Ki [1]: > 2 µM
SMILES: CC(=O)N1CCN(C(=O)C(N)CCc2ccccc2)C(C(=O)NCc2ccc(CN)cc2)C1 (stereo not shown) [Compound M00850]

- Ki [1]: > 2 µM
SMILES: NCc1ccc(CNC(=O)C2CN(C(=O)NCc3ccccc3)CCN2C(=O)C(N)CCc2ccccc2)cc1 (stereo not shown) [Compound M00847]

- Ki [1]: > 2 µM
SMILES: CN(C)C(=O)N1CCN(C(=O)C(N)CCc2ccccc2)C(C(=O)NCc2ccc(CN)cc2)C1 (stereo not shown) [Compound M00848]

- Ki [1]: > 2 µM
SMILES: Cn1nnc2cc(CNC(=O)C3CN(C(=O)OCc4ccccc4)CCN3C(=O)C(N)c3cc4ccccc4o3)ccc21 (stereo not shown) [Compound M05286]

- Ki [1]: > 2 µM
SMILES: CC(C(=O)N1CCN(C(=O)C(N)CCc2ccccc2)C(C(=O)NCc2ccc(CN)cc2)C1)c1ccccc1 (stereo not shown) [Compound M00859]
